Measurements published in article PMC10999543, “Identification of kinase modulators as host-directed therapeutics against intracellular methicillin-resistant Staphylococcus aureus” (Frontiers in Cellular and Infection Microbiology, 2024).
Like-named read-outs stand apart in the source and are kept apart here.

Tests used:
intracellular MRSA = assay type: cell-based, Staphylococcus aureus; conditions: for z-scoreMRSA+ mean: mean of 3 replicates; for z-scoreMRSA+ rep 1 / %GFP+ rep 1: replicate 1; for z-scoreMRSA+ rep 2 / %GFP+ rep 2: replicate 2; for z-scoreMRSA+ rep 3 / %GFP+ rep 3: replicate 3
Method: (§1) The cells were resuspended in cell culture medium without antibiotics, seeded with 10,000 cells/well into Costar flat-bottom 96-well plates (Corning, Amsterdam, the Netherlands), and were incubated overnight at 37°C/5% CO2. The next day, the bacteria were centrifuged at ≥1800 g for 15 min and resuspended in cold PBS + 5 mM ethylenediaminetetraacetic acid (EDTA). The number of CFUs present in the bacterial suspension was estimated from the optical density at 600 nm (OD600) by assuming 8x10^8 CFUs to be present in a bacterial suspension with OD600 = 1, based on prior titrations. The bacterial suspension was diluted in cell culture medium without antibiotics and added to the cells. Accuracy of the multiplicity of infection (MOI) was validated by plating serial dilutions of the MRSA inoculums on Difco TS agar plates (BD Biosciences). The calculated mean MOI throughout all experiments was 6.8 ± 4.6 (mean ± SD). Infected cells were centrifuged for 3 min at 150 g and incubated for 1 hour at 37°C/5% CO2. Next, the cells were incubated with fresh cell culture medium supplemented with 30 µg/ml gentamicin sulphate (Lonza BioWhittaker, Basel, Switzerland) for 15 min at 37°C/5% CO2 to kill residual extracellular bacteria. Infected cells were incubated overnight at 37°C/5% CO2 in cell culture medium in the presence of kinase inhibitors and 5 µg/ml gentamicin sulphate-containing medium to prevent the growth of extracellular bacteria. The solvent of the compounds, DMSO, was used at equal % v/v as a negative control. For the screen, each compound was tested in triplicate, on separate cell culture plates, resulting in triplicate values for each kinase inhibitor.
(§2) HeLa cells were harvested by trypsinization and fixed with 1% paraformaldehyde. Samples were measured on a FACSLyric with HTS extension (BD Biosciences). Flow cytometry data were analysed using FlowJo version 10 (TreeStar, Ashland, OR, USA). HeLa cells positive for GFP were gated to calculate the percentage of MRSA-infected cells. The cell count was used as surrogate readout of cell viability.
To identify potential “hit” compounds, the flow cytometry data were used to calculate standard z-scores using z = (x-μ)/σ – zneg, where x is total event count or the percent of GFP-positive cells from a single well, μ is the mean from wells of the plate, σ is the standard deviation of the plate and zneg is the mean z-score of the negative control of the plate (i.e., DMSO) ([Korbee et al., 2018]). To minimize the possibility that the presence of extreme values on a plate affected the z-scores, raw values that deviated two-fold from the negative controls were excluded when calculating plate means and standard deviations as used in the aforementioned formula. Compounds were considered a “hit” when z-scoreMRSA+ ≤ -2 and z-scoreHeLa ≥ -3 for cell count. In cases where compounds were screened twice, the average values were used to select hit compounds.

HeLa cells = test: Compound screen by flow cytometry: HeLa cell count as surrogate readout of cell viability (z-scoreHeLa); assay type: cell-based, human
Method: as §1, §2
To minimize the possibility that the presence of extreme values on a plate affected the z-scores, raw values that deviated two-fold from the negative controls were excluded when calculating plate means and standard deviations as used in the aforementioned formula. Compounds were considered a “hit” when z-scoreMRSA+ ≤ -2 and z-scoreHeLa ≥ -3 for cell count. In cases where compounds were screened twice, the average values were used to select hit compounds.

[1] = PKIS compound screen, Yes/No call
[2] = PKIS compound screen, Yes/No call (effect without cell death)
[3] = PKIS compounds raw data, MRSA-infected HeLa cells
[4] = PKIS compound screen, mean of 3 replicates
[5] = PKIS compound screen, replicate 1
[6] = PKIS compound screen, replicate 2
[7] = PKIS compound screen, replicate 3
[8] = PKIS compounds raw data, replicate 1, HeLa cell count
[9] = PKIS compounds raw data, replicate 2, HeLa cell count
[10] = PKIS compounds raw data, replicate 3, HeLa cell count
[11] = PKIS compound screen raw data, MRSA-infected HeLa cells
[12] = Yes/No: effect without cell death
[13] = compound screen, MRSA-infected HeLa cells
[14] = PKIS compound screen, MRSA-infected HeLa cells
[15] = PKIS compound screen, Yes/No call on z-scoreMRSA+
[16] = PKIS compound screen raw data, HeLa cell count, replicate 1
[17] = PKIS compound screen raw data, HeLa cell count, replicate 2
[18] = PKIS compound screen raw data, HeLa cell count, replicate 3
[19] = PKIS compound screen, HeLa cell count, mean of 3 replicates
[20] = PKIS compound screen, HeLa cell count, replicate 1
[21] = PKIS compound screen, HeLa cell count, replicate 2
[22] = PKIS compound screen, HeLa cell count, replicate 3
[23] = PKIS compound screen, Yes/No call on z-scoreHeLa
[24] = compound screen, HeLa cell count, mean of 3 replicates
[25] = compound screen, HeLa cell count, replicate 1
[26] = compound screen, HeLa cell count, replicate 2
[27] = compound screen, HeLa cell count, replicate 3

Row | Compound | hit (intracellular MRSA; [2]) | %GFP+ rep 1 (intracellular MRSA; [3]) | %GFP+ rep 2 (intracellular MRSA; [3]) | %GFP+ rep 3 (intracellular MRSA; [3]) | %GFP+ rep 1 (intracellular MRSA; [11]) | %GFP+ rep 2 (intracellular MRSA; [11]) | %GFP+ rep 3 (intracellular MRSA; [11]) | z-scoreMRSA+ mean (intracellular MRSA; [14]) | z-scoreMRSA+ rep 1 (intracellular MRSA; [14]) | z-scoreMRSA+ rep 2 (intracellular MRSA; [14]) | z-scoreMRSA+ rep 3 (intracellular MRSA; [14]) | effect (intracellular MRSA; [15]) | cell count rep 1 (HeLa cells; [16]) | cell count rep 2 (HeLa cells; [17]) | cell count rep 3 (HeLa cells; [18]) | z-scoreHeLa mean (HeLa cells; [19]) | z-scoreHeLa rep 1 (HeLa cells; [20]) | z-scoreHeLa rep 2 (HeLa cells; [21]) | z-scoreHeLa rep 3 (HeLa cells; [22]) | cell death (HeLa cells; [23]) | other results
1 | NS(=O)(=O)c1ccc(N/C=C2\C(=O)Nc3ccc4ncsc4c32)cc1 [GW297361X] | No | 15.9% | 17.0% | 13.6% | – | – | – | – | – | – | – | – | – | – | – | – | – | – | – | – | effect (intracellular MRSA; [1]): No; z-scoreMRSA+ mean (intracellular MRSA; PKIS compound screen): 0.46; z-scoreMRSA+ rep 1 (intracellular MRSA; PKIS compound screen): 0.87; z-scoreMRSA+ rep 2 (intracellular MRSA; PKIS compound screen): 1.17; z-scoreMRSA+ rep 3 (intracellular MRSA; PKIS compound screen): -0.68; cell death (HeLa cells; [1]): No; z-scoreHeLa mean (HeLa cells; [4]): -1.04; z-scoreHeLa rep 1 (HeLa cells; [5]): -1.65; z-scoreHeLa rep 2 (HeLa cells; [6]): -0.59; z-scoreHeLa rep 3 (HeLa cells; [7]): -0.88; cell count rep 1 (HeLa cells; [8]): 2950; cell count rep 2 (HeLa cells; [9]): 3493; cell count rep 3 (HeLa cells; [10]): 5130
2 | CCN(CC)CCOc1ccc(Nc2ncc3cc(-c4c(Cl)cccc4Cl)c(=O)n(C)c3n2)cc1 [SB-601273] | – | – | – | – | 32.3% | 28.1% | 25.0% | – | – | – | – | – | – | – | – | – | – | – | – | – | effect (intracellular MRSA; Yes/No call from z-scoreMRSA+): No; hit (intracellular MRSA; [12]): No; z-scoreMRSA+ mean (intracellular MRSA; [13]): 1.27; z-scoreMRSA+ rep 1 (intracellular MRSA; [13]): 1.64; z-scoreMRSA+ rep 2 (intracellular MRSA; [13]): 1.33; z-scoreMRSA+ rep 3 (intracellular MRSA; [13]): 0.84; cell death (HeLa cells): No; cell count rep 1 (HeLa cells; human): 895; cell count rep 2 (HeLa cells; human): 949; cell count rep 3 (HeLa cells; human): 1208; z-scoreHeLa mean (HeLa cells; human): -2.54; z-scoreHeLa rep 1 (HeLa cells; human): -2.49; z-scoreHeLa rep 2 (HeLa cells; human): -2.58; z-scoreHeLa rep 3 (HeLa cells; human): -2.55
3 | c1ccc(-c2n[nH]cc2Nc2ccnc3ccccc23)nc1 [GW694077X] | No | – | – | – | 15.2% | 17.2% | 15.3% | -1.06 | -0.96 | -0.60 | -1.62 | No | 27159 | 28509 | 18866 | 0.01 | -0.51 | 0.55 | -0.0113 | No | –
4 | NS(=O)(=O)c1cccc(-c2cc3ccncc3cc2OCc2ccccc2)c1 [GSK980961A] | No | – | – | – | 13.7% | 14.8% | 15.5% | -1.25 | -1.32 | -1.12 | -1.31 | No | 14876 | 28602 | 41262 | -0.61 | -0.80 | -1.15 | 0.12 | No | –
5 | O=C1Nc2ccc(-c3cccnc3)cc2C1=Cc1cc(Br)c(O)c(Br)c1 [GW429374A] | No | – | – | – | 14.3% | 14.7% | 15.6% | -1.18 | -1.13 | -1.15 | -1.27 | No | 24917 | 38643 | 50434 | 1.01 | 0.73 | 0.72 | 1.58 | No | –
6 | COc1ccc(CNC(=O)NC2CCN(c3ccnc(Nc4ccc(F)cc4)n3)CC2)cc1 [GSK1379788A] | – | – | – | – | 25.3% | 23.5% | 21.9% | – | – | – | – | – | 6376 | 5935 | 7721 | – | – | – | – | – | effect (intracellular MRSA; Yes/No call from z-scoreMRSA+): No; hit (intracellular MRSA; [12]): No; z-scoreMRSA+ mean (intracellular MRSA; [13]): 0.044; z-scoreMRSA+ rep 1 (intracellular MRSA; [13]): 0.00598; z-scoreMRSA+ rep 2 (intracellular MRSA; [13]): 0.22; z-scoreMRSA+ rep 3 (intracellular MRSA; [13]): -0.09; cell death (HeLa cells; Yes/No call from z-scoreHeLa): No; z-scoreHeLa mean (HeLa cells; [24]): 1.43; z-scoreHeLa rep 1 (HeLa cells; [25]): 1.46; z-scoreHeLa rep 2 (HeLa cells; [26]): 1.26; z-scoreHeLa rep 3 (HeLa cells; [27]): 1.57
7 | Cc1cc(-c2ccc3c(c2)CC[C@@H](N[C@@H](C)c2ccccc2)C3)cnc1N [GW412617A] | No | – | – | – | 20.0% | 21.4% | 20.6% | 0.60 | 0.68 | 0.86 | 0.25 | No | 42421 | 41709 | 47670 | 1.94 | 3.38 | 1.29 | 1.14 | No | –
8 | CCn1cc(-c2ccnc3[nH]ccc23)c(-c2cccc(NC(=O)Nc3ccc(OCc4ccccc4)cc3)c2)n1 [GSK718429A] | – | 12.6% | 13.0% | 13.2% | – | – | – | – | – | – | – | – | – | – | – | – | – | – | – | – | effect (intracellular MRSA; Yes/No call from z-scoreMRSA+): No; hit (intracellular MRSA; [12]): No; z-scoreMRSA+ mean (intracellular MRSA; [13]): -0.38; z-scoreMRSA+ rep 1 (intracellular MRSA; [13]): -0.18; z-scoreMRSA+ rep 2 (intracellular MRSA; [13]): -0.17; z-scoreMRSA+ rep 3 (intracellular MRSA; [13]): -0.79; cell count rep 1 (HeLa cells; [8]): 2721; cell count rep 2 (HeLa cells; [9]): 2140; cell count rep 3 (HeLa cells; [10]): 4945; cell death (HeLa cells; Yes/No call from z-scoreHeLa): No; z-scoreHeLa mean (HeLa cells; [24]): -1.48; z-scoreHeLa rep 1 (HeLa cells; [25]): -1.86; z-scoreHeLa rep 2 (HeLa cells; [26]): -1.61; z-scoreHeLa rep 3 (HeLa cells; [27]): -0.96
9 | COc1ccc(Nc2nccc(N3CCC(NC(=O)c4cc5ccccc5s4)C3)n2)cc1 (centres unmarked) [GSK1379738A] | No | – | – | – | 23.4% | 24.0% | 25.7% | 1.73 | 1.76 | 1.65 | 1.80 | No | 35022 | 33049 | 42431 | 0.75 | 2.26 | -0.32 | 0.30 | No | –
10 | Cc1nc(-c2ccccc2)n2nc(NCCCN3CCOCC3)ncc12 [GW874091X] | No | 14.3% | 15.1% | 16.0% | – | – | – | – | – | – | – | – | – | – | – | – | – | – | – | – | effect (intracellular MRSA; [1]): No; z-scoreMRSA+ mean (intracellular MRSA; PKIS compound screen): 0.31; z-scoreMRSA+ rep 1 (intracellular MRSA; PKIS compound screen): 0.36; z-scoreMRSA+ rep 2 (intracellular MRSA; PKIS compound screen): 0.54; z-scoreMRSA+ rep 3 (intracellular MRSA; PKIS compound screen): 0.0338; cell death (HeLa cells; [1]): No; z-scoreHeLa mean (HeLa cells; [4]): -0.73; z-scoreHeLa rep 1 (HeLa cells; [5]): -1.54; z-scoreHeLa rep 2 (HeLa cells; [6]): -0.37; z-scoreHeLa rep 3 (HeLa cells; [7]): -0.27; cell count rep 1 (HeLa cells; [8]): 3071; cell count rep 2 (HeLa cells; [9]): 3785; cell count rep 3 (HeLa cells; [10]): 6390
